According to publication PMC6753210, “^18F-Labeled Cyclized α-Melanocyte-Stimulating Hormone Derivatives for Imaging Human Melanoma Xenograft with Positron Emission Tomography” (Scientific Reports, 2019):

Tests used:
MC1R = target: T1, MC1R (Mus musculus, UniProt Q01727); assay: In vitro competition binding assay with [^125I]NDP-αMSH on B16-F10 cells; conditions: 0.1 nM [^125I]NDP-αMSH, 25 °C, 1 h, n = 3
T1 construct: endogenous in cells; host or cells: B16-F10 mouse melanoma cells
Experimental: Receptor binding affinity of CCZ01096 was assessed using previously published procedures. Briefly, approximately 500,000 B16-F10 cells/well were seeded onto 24 well poly-D-lysine plates overnight. The cells were washed with PBS and the growth media was replaced by the reaction buffer described above. Increasing concentrations of non-radioactive CCZ01096 (0.5 pM to 5 μM) along with 0.1 nM of [^125I]NDP-αMSH were also added. The reaction mixture was incubated at 25 °C with moderate agitation for 1 h. Cells were washed with ice-cold PBS, harvested, and measured for radioactivity on a WIZARD 2480 gamma counter.

[1] = test system: SK-MEL-1 human melanoma xenografts; assay: Biodistribution in NSG mice bearing human SK-MEL-1 melanoma xenografts; type: in vivo, mouse; conditions: 1 h p.i.
Experimental: (§1) All animal experiments were conducted in according to the guidelines established by Canadian Council on Animal Care and approved by Animal Ethics Committee of the University of British Columbia. Male C57BL/6 J and immunodeficient NSG mice were obtained from an in-house breeding colony at the BC Cancer Research Centre. For tumor implantation, mice were anesthetized by inhalation with 2% isoflurane, 1 × 10^6 B16-F10 and 5 × 10^6 SK-MEL-1 cells were inoculated subcutaneously on the right dorsal flank of C57BL/6J and NSG mice, respectively. Mice were used for imaging or biodistribution studies when the tumors reached 6–8 mm in diameter.
(§2) μPET/μCT imaging and biodistribution experiments were performed on a μPET/μCT scanner (Inveon, Siemens) using previously published procedures. Briefly, tumor-bearing mice were injected with approximately 3.0–5.0 MBq (for imaging) or <1.5 MBq (for biodistribution) of radiolabeled peptides via tail vein under sedation (2% isoflurane inhalation). For [^18F]FDG imaging and biodistribution, mice underwent fasting overnight prior to the experiments. Imaging studies were performed in duplicate or triplicate. […] After injection, mice were allowed to recover and roam freely in their cages. At 1 or 2 h p.i., mice were anesthetized again and positioned in the scanner. A baseline CT scan was obtained for localization and attenuation correction, followed by a 10–15 min static μPET scan. For biodistribution studies, mice were euthanized by CO2 inhalation, blood was withdrawn promptly, and the tissues of interest were harvested, rinsed, and blotted dry. All tissues were weighed and the radioactivity of the collected samples was measured using a WIZARD 2480 gamma counter.

[2] = as above; type: in vivo, mouse; conditions: male, NSG, mouse, SK-MEL-1 tumor, iv, total radioactivity, 1 h p.i., n = 4
Experimental: as §1, §2

[3] = NSG mice, SK-MEL-1 xenograft, unblocked, n = 5 ([^18F]FDG n = 4)

T1 sequence (Q01727 whole entry): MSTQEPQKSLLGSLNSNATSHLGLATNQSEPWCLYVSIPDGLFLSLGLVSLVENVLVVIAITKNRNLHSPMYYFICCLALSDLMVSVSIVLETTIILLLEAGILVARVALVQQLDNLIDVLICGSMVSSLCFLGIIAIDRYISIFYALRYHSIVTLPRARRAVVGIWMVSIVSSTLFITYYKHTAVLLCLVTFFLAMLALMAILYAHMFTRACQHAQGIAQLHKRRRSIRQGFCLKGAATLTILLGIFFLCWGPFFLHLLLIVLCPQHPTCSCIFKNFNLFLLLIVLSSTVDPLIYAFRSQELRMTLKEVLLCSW

## CCCC[C@H](NC(=O)CN1CCC(NC(=O)C(CCCCNC(=O)Cn2cc(C[N+](C)(C)C[B-](F)(F)F)nn2)NC(=O)Cn2cc(C[N+](C)(C)C[B-](F)(F)F)nn2)CC1)C(=O)N[C@H]1CC(=O)NCCCC[C@@H](C(N)=O)NC(=O)[C@H](Cc2c[nH]c3ccccc23)NC(=O)[C@H](CCCNC(=N)N)NC(=O)[C@@H](Cc2ccccc2)NC(=O)[C@H](Cc2c[nH]cn2)NC1=O (stereo partly drawn) [CCZ01096]
MC1R
  Ki: 0.51 ± 0.08 nM

## OC[C@H]1OC(O)[C@H]([18F])[C@@H](O)[C@@H]1O (stereo partly drawn) [[^18F]FDG, 2-[^18F]fluorodeoxyglucose]
[1]; [3]
  Adrenal glands uptake: 2.05±0.28 %ID/g
  Blood uptake: 0.95±0.27 %ID/g
  Bone uptake: 0.86 ± 0.35 %ID/g
  Brain uptake: 9.54 ± 1.69 %ID/g
  Fat uptake: 0.86±0.21 %ID/g
  Heart uptake: 8.80 ± 4.42 %ID/g
  Intestines uptake: 3.95 ± 0.16 %ID/g
  Kidneys uptake: 3.01±0.28 %ID/g
  Liver uptake: 1.48±0.14 %ID/g
  Lungs uptake: 3.42±0.40 %ID/g
  Muscle uptake: 1.75 ± 0.54 %ID/g
  Pancreas uptake: 1.41±0.20 %ID/g
  Seminal glands uptake: 4.63 ± 0.57 %ID/g
  Spleen uptake: 3.59±0.68 %ID/g
  Stomach uptake: 1.00±0.11 %ID/g
  Testes uptake: 1.15±1.03 %ID/g
  Thyroid uptake: 2.72±0.13 %ID/g
  Tumor/Blood ratio: 7.64±2.06
  Tumor/Bone ratio: 8.83±2.62
  Tumor/Kidneys ratio: 2.30±0.04
  Tumor/Muscle ratio: 4.22±1.30
[1]; NSG mice, SK-MEL-1 xenograft, tail vein, unblocked, gamma counter, n = 5 ([^18F]FDG n = 4)
  SK-MEL-1 tumor uptake: 6.91 ± 0.66 %ID/g

## CCCC[C@H](NC(=O)CN1CCC(NC(=O)CN2CCN(CC(=O)O)CCN(CC(=O)O)CCN(CC(=O)O)CC2)CC1)C(=O)N[C@H]1CC(=O)NCCCC[C@@H](C(N)=O)NC(=O)[C@H](Cc2c[nH]c3ccccc23)NC(=O)[C@H](CCCNC(=N)N)NC(=O)[C@@H](Cc2ccccc2)NC(=O)[C@H](Cc2c[nH]cn2)NC1=O [[^68Ga]Ga-CCZ01048, metal not drawn]
[2]; 5.9 pmol, without co-injection, total injected peptide mass 5.9 ± 0.90 pmol
  tissue uptake at 1 h: 6.15 ± 0.22 %ID/g
[2]; co-injection of 20 pmol ^natGa-CCZ01048, total peptide mass 27.5 ± 0.6 pmol
  tissue uptake at 1 h: 2.66 ± 0.22 %ID/g
[2]; co-injection of 50 pmol ^natGa-CCZ01048, total peptide mass 57.3 ± 1.0 pmol
  tissue uptake at 1 h: 1.31 ± 0.13 %ID/g
[2]; co-injection of 100 pmol ^natGa-CCZ01048, total peptide mass 109 ± 1.0 pmol
  tissue uptake at 1 h: 1.04 ± 0.17 %ID/g
[1]; co-injection of 20 pmol ^natGa-CCZ01048 vs none
  Reduction of tumor uptake: 57%
[1]; co-injection of 50 pmol ^natGa-CCZ01048 vs none
  Reduction of tumor uptake: 79%
[1]; co-injection of 100 pmol ^natGa-CCZ01048 vs none
  Reduction of tumor uptake: 83%
